Source: patent publication US4098778A, “β-Endorphin analog” (Hoffmann-La Roche Inc., priority 1977, dated 1978)

Assays:
mice = experiment: Analgesic activity in mice by the tail-flick method, peptide injected icv; assay type: in vivo; conditions: for In vivo analgesic activity Relative Potency: molar basis, βc-endorphin = 100; for In vivo analgesic activity AD50: tail-flick, male ICR mice, (95% confidence limit)
Protocol: The analgesic activity of the synthetic products was assessed in mice by the tail-flick method of D'Amour and Smith J. Pharmacol. Exp. Ther. 72, 74 (1941). Male ICR mice weighing 25-30 g were used. The peptide was injected icv in a volume of 5 μl as described by Haley and McCormick, Br. J. Pharmacol. 12, 12 (1957). To evaluate the tail-flick response, a control latency (T0) was obtained from the mean of two latencies determined prior to the peptide injection; the test latencies (T1) were determined at various times after injection for each animal. "Percent analgesia" was calculated as [(T1 -T0)/(T2 -T0)] × 100; where the cutoff time (T2) was 10 sec. With a twofold increase in latency of reaction time of the reponse as a quantal index of inhibition, the median antinociceptive dose (AD50) and 95% confidence limits were calculated as described by Litchfield and Wilcoxon, J. Pharmacol. Exp. Ther. 96, 99 (1949).

guinea pig ileum = experiment: In vitro opiate activity, guinea pig ileum method of Kosterlitz et al.; assay type: cell-based; conditions: for In vitro opiate activity: guinea pig ileum, βc-endorphin = 100
From the text: The opiate activity of the peptide of the invention, the parent peptide and other fragment analogs thereof as assayed in vitro by the guinea pig ileum method of Kosterlitz et al., Brit. J. Pharmacol. 39, 398 (1970) is seen in Table 2 below.

Row | Substance | In vivo analgesic activity Relative Potency (mice) | In vivo analgesic activity AD50 (mice; icv) | In vitro opiate activity (guinea pig ileum) | inhibition of the tail-flick response (mice; doses of 42.5 and 85 μg, icv, mice) | analgesic activity (tail flick method) (mice; mice) | reversal of activity by naloxone (guinea pig ileum; activity as assayed in vitro) | potency relative to βc-endorphin as assayed in vitro (guinea pig ileum; of βc-endorphin)
1 | βc -Endorphin-(1-5)-(28-31) | < 0.1 | > 86 μg/mouse | 35 |  |  |  | 
2 | βc -endorphin (6-31) (TSEKSQTPLVTLFKNAIIKNAHKKGQ; Beta-endorphin; UniProt P01203 6-31, looked up, fragment) [βc -Endorphin-(6-31)] | < 0.1 | > 86 μg/mouse | 4 | slight inhibition of the tail-flick response | intrinsic measurable analgesic activity | not reversed by naloxone | 4%
3 | βc -endorphin (YGGFMTSEKSQTPLVTLFKNAIIKNAHKKGQ; Beta-endorphin; UniProt P01203 1-31, looked up) [parent peptide] | 100 | 0.11 (0.07-0.17) μg/mouse | 100 |  |  |  | 
4 | βh -Endorphin-(1-5)-(16-31) | 0.3 | 25.1(16.8-37.1) μg/mouse | 135 |  |  |  | 
